Experimental data published in BindingDB's records for patent US20240051936 (Monte Rosa Therapeutics, 2024).
pIC50: −log10 of the molar value.

Target: Protein cereblon (Homo sapiens, UniProt Q96SW2)
Assay: Fluorescent Polarization Assay
Procedure: Compound activity was monitored in a fluorescence polarization (FP) homogeneous assay using 1-[5-({2-[2-(2-{[2-(2,6-dioxopiperidin-3-yl)-1,3-dioxo-2,3-dihydro-1H-isoindol-4-yl]oxy}acetamido)ethoxy]ethyl}carbamoyl)pentyl]-3,3-dimethyl-2-[(1E,3E)-5-[(2E)-1,3,3-trimethyl-5-sulfo-2,3-dihydro-1H-indol-2-ylidene]penta-1,3-dien-1-yl]-3H-indol-1-ium-5-sulfonate as a fluorescent probe. Unless otherwise stated, all reagents were purchased from Sigma Aldrich. Enzymatic reactions were conducted in Perkin-Elmer Black 384 well ProxiPlate Plus (catalogue no. 6008269) in 10 sL total volume. Full length wild-type cereblon CRBN (80.0 nM, 10 sL) was incubated in assay buffer containing 20 mM HEPES (pH 8.0), […], 0.5 mM TCEP and 0.05% Tween 20 in the presence or absence of compound (300 nL). Inhibitors were stored as 10 mM DMSO stocks in an inert environment (low humidity, dark, low oxygen, room temperature) using the Storage Pod System. Compounds and DMSO were dispensed using the Echo E5XX (Labcyte Inc. USA) to give concentrations from 300 to 0.937 or 3000 to 9.3 nM in a 12 data point curve. […] Following incubation at room temperature for 30 min, the assay was initiated by dispensing the probe to a final concentration of 5 nM (2.5 nL of a 20 μM stock) using the Echo E5XX. FP was measured after a period of 12 hours using a Pherastar plate reader (BMG Labtech, Germany) exciting at 590 nm and measuring the amount of parallel and perpendicular light at 675 nm. The FP signal was subsequently normalized to the no-compound control (i.e., DMSO). Analysis and IC50 values were derived using Dotmatics (Dotmatics UK) software.

Chain of Protein cereblon (Q96SW2 whole entry): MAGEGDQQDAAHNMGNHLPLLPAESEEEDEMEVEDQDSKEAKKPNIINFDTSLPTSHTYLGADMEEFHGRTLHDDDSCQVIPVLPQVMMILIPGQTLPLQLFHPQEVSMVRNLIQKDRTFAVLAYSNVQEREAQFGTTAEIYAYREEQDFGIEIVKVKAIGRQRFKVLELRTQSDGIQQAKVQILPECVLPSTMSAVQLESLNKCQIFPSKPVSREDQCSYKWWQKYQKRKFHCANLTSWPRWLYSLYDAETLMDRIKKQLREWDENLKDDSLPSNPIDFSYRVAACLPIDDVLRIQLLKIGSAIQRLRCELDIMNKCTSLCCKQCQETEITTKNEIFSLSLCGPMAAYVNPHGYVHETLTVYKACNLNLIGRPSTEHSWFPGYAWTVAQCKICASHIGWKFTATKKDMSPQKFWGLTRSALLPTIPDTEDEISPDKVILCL

pIC50	Structure (SMILES)
< 5.72	CC(C)(C)c1ccc(NC(=O)OCc2cc(F)c3c(c2)C(=O)N(C2CCC(=O)NC2=O)C3)cc1 (centres undefined) [US20240051936, Compound 10]
< 5.72	O=C1CCC(N2Cc3c(F)cc(COC(=O)Nc4ccc(F)c(OC(F)(F)F)c4)cc3C2=O)C(=O)N1 (centres undefined) [US20240051936, Compound 14]
< 5.72	O=C1CCC(N2Cc3c(F)cc(COC(=O)Nc4ccc(C5CCC5)cc4)cc3C2=O)C(=O)N1 (centres undefined) [US20240051936, Compound 22]
< 5.72	O=C1CCC(N2Cc3c(F)cc(COC(=O)Nc4ccc(-c5ccccc5F)c(F)c4)cc3C2=O)C(=O)N1 (centres undefined) [US20240051936, Compound 29]
< 5.72	O=C1CCC(N2Cc3c(F)cc(COC(=O)Nc4cc(F)c(-c5ccccc5)c(F)c4)cc3C2=O)C(=O)N1 (centres undefined) [US20240051936, Compound 30]
< 5.72	O=C1CCC(N2Cc3c(F)cc(COC(=O)Nc4ccc(F)c(Cl)c4)cc3C2=O)C(=O)N1 (centres undefined) [US20240051936, Compound 32]
< 5.72	O=C1CCC(N2Cc3c(F)cc(COC(=O)Nc4cc(F)cc(Cl)c4)cc3C2=O)C(=O)N1 (centres undefined) [US20240051936, Compound 33]
< 5.72	COc1c(COC(=O)Nc2ccc(C)c(Cl)c2)ccc2c1C(=O)N(C1CCC(=O)NC1=O)C2 (centres undefined) [US20240051936, Compound 70]

Structure (SMILES)	pIC50
O=C1CCC(N2Cc3c(F)cc(COC(=O)Nc4cc(F)c(F)c(Cl)c4)cc3C2=O)C(=O)N1 (centres undefined) [US20240051936, Compound 61]	< 5.72
